Measured values from publication PMC6528642, “Myo‐inositol‐1‐phosphate synthase (Ino‐1) functions as a protection mechanism in Corynebacterium glutamicum under oxidative stress” (MicrobiologyOpen, 2018).

Molecular target: T1, Ino-1 (Corynebacterium glutamicum, UniProt Q8NLE6)
T1 construct: His6-tagged (pXMJ19-His6-ino-1), homologous expression in C. glutamicum delta-ino-1, Ni-NTA
Assay: intrinsic protein fluorescence quenching (Ex […] nm, Em […] nm)
Type: binding
Conditions: read-out: apparent K D

T1 sequence (Q8NLE6 whole entry): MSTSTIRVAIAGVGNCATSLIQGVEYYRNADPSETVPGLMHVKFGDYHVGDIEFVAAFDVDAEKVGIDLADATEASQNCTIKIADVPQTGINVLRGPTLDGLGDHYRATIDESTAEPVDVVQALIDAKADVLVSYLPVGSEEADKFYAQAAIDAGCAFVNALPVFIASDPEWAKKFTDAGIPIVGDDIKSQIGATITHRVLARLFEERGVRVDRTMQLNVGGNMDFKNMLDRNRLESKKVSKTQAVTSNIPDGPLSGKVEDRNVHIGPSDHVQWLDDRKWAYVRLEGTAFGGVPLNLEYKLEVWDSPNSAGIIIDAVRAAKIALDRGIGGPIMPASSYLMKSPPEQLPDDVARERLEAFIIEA

Compound: NC(=O)c1ccc[n+]([C@@H]2O[C@H](COP(=O)(O)OP(=O)(O)OC[C@H]3O[C@@H](n4cnc5c(N)ncnc54)[C@H](O)[C@@H]3O)[C@@H](O)[C@H]2O)c1 [NAD^+]
- Kd: 4.7 ± 0.8 µM
